Patent publication US20060069132A1, “Azolecarboxamide herbicides” (priority 2004, published 2006)

Assays:
large crabgrass [1] = experiment: Test A pre-/postemergence herbicide test; type: in vivo, Digitaria sanguinalis
How it was run: (§1)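 Greenhouse injury scoring (0–100, complete control = 100) at approximately ten days follows simultaneous pre- and postemergence application. Soil received a directed spray after seeding; seedlings of 2–10 cm at the one- to two-leaf stage were sprayed to runoff.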

redroot pigweed = experiment: Test A pre-/postemergence herbicide test; type: in vivo, Amaranthus retroflexus
How it was run: as §1

rice = experiment: Test B pre-/postemergence herbicide test; type: in vivo, Oryza sativa
How it was run: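 Seeds were planted and treated preemergence with compounds formulated in a non-phytotoxic solvent mixture containing surfactant, while plants at the 1- to 4-leaf stage (2 to 18 cm) received postemergence sprays. Flooded paddy plants were grown to the 2-leaf stage. After 13 to 15 days in a greenhouse, injury was visually rated 0–100 against untreated controls.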

johnsongrass = experiment: Test C pre-/postemergence herbicide test; type: in vivo, Sorghum halepense
Description: (§2) Seeds of plant species selected from bermudagrass (Cynodon dactylon (L.) Pers.), Surinam grass (Urochloa decumbens (Staph) R. D. Webster, previously named Brachiaria decumbens Stapf), cocklebur (Xanthium strumarium L.), corn (Zea mays L.), large crabgrass (Digitaria sanguinalis (L.) Scop.), woolly cupgrass (Eriochloa villosa (Thunb.) Kunth), giant foxtail (Setaria faberi Herrm.), goosegrass (Eleusine indica (L.) Gaertn.), johnsongrass (Sorghum halepense (L.) Pers.), kochia (Kochia scoparia (L.) Schrad.), lambsquarters (Chenopodium album L.), morningglory (Ipomoea coccinea L.), eastern black nightshade (Solanum ptycanthum Dunal), yellow nutsedge (Cyperus esculentus L.), pigweed (Amaranthus retroflexus L.), common ragweed (Ambrosia elatior L.), soybean (Glycine max (L.) Merr.), common (oilseed) sunflower (Helianthus annuus L.) and velvetleaf (Abutilon theophrasti Medik.) were planted and treated preemergence with test chemicals formulated in a non-phytotoxic solvent mixture which included a surfactant.
(§3) At the same time, plants selected from these crop and weed species and also winter barley (Hordeum vulgare L.), blackgrass (Alopecurus myosuroides Huds.), canarygrass (Phalaris minor Retz.), chickweed (Stellaria media (L.) Vill.), downy bromegrass (Bromus tectorum L.), green foxtail (Setaria viridis (L.) Beauv.), Italian ryegrass (Lolium multiflorum Lam.), wheat (Triticum aestivum L.), wild oat (Avenafatua L.) and windgrass (Apera spica-venti (L.) Beauv.) were treated with postemergence applications of some of the test chemicals formulated in the same manner. Plants ranged in height from 2 to 18 cm (1- to 4-leaf stage) for postemergence treatments. Plant species in the flooded paddy test consisted of rice (Oryza sativa), smallflower umbrella sedge (Cyperus difformis L.), ducksalad (Heteranthera limosa (Sw.) Willd.) and barnyardgrass (Echinochloa crus-galli (L.) Beauv.) grown to the 2-leaf stage for testing. Treated plants and controls were maintained in a greenhouse for 12 to 14 days, after which time all species were compared to controls and visually evaluated. Plant response ratings, summarized in Table C, are based on a scale of 0 to 100 where 0 is no effect and 100 is complete control. A dash (-) response means no test result.

large crabgrass [2] = experiment: Test C pre-/postemergence herbicide test; type: in vivo, Digitaria sanguinalis
Description: as §2, §3

corn = experiment: Test C pre-/postemergence herbicide test; type: in vivo, Zea mays
Description: as §2, §3

[3] = Postemergence, 500 g ai/ha, 0 to 100 scale, 0 no effect, 100 complete control
[4] = Postemergence, 2000 g ai/ha, 0 to 100 scale, 0 no effect, 100 complete control
[5] = Preemergence, 500 g ai/ha, visual rating, 0 to 100 scale (0 no effect, 100 complete control)
[6] = Preemergence, 2000 g ai/ha, 0 to 100 scale, 0 no effect, 100 complete control
[7] = Preemergence, 2000 g ai/ha, visual rating, 0 to 100 scale (0 no effect, 100 complete control)
[8] = preemergence, 500 g ai/ha, visual injury, 0 to 100 scale (0 no effect, 100 complete control)
[9] = 125 g ai/ha, 0 = no effect, 100 = complete control, preemergence
[10] = 500 g ai/ha, visual rating, 0 = no effect, 100 = complete control, preemergence
[11] = 500 g ai/ha, visual rating 0-100, 0 no effect, 100 complete control, preemergence
[12] = Postemergence, 250 g ai/ha, scale 0 to 100, 0 no effect, 100 complete control
[13] = Postemergence, 500 g ai/ha, scale 0 to 100, 0 no effect, 100 complete control
[14] = postemergence, 125 g ai/ha, scale 0 to 100
[15] = postemergence, 62 g ai/ha, scale 0 to 100
[16] = preemergence, 125 g ai/ha, 0 to 100 scale, 0 is no effect, 100 is complete control
[17] = Postemergence, 125 g ai/ha, 0 to 100 scale, 0 no effect, 100 complete control
[18] = preemergence, 125 g ai/ha, visual injury, 0 to 100 scale (0 no effect, 100 complete control)
[19] = 62 g ai/ha, preemergence, scale 0 to 100
[20] = 250 g ai/ha, scale 0-100, preemergence
[21] = 500 g ai/ha, scale 0 to 100 (0 no effect, 100 complete control), visual, 12 to 14 days, preemergence

SMILES | Plant response rating, Crabgrass, Large (large crabgrass [1]; [4]) | Plant response rating, Pigweed (redroot pigweed; [4]) | Crabgrass, Large plant response rating (large crabgrass [1]; [3]) | Crabgrass, Large plant response rating (large crabgrass [1]; [7]) | Crabgrass, Large plant response rating (large crabgrass [1]; [8]) | Pigweed plant response rating (redroot pigweed; [3]) | Pigweed plant response rating (redroot pigweed; [7]) | Pigweed plant response rating (redroot pigweed; [8]) | other results
CCn1nc(C(C)(C)C)cc1C(=O)Nc1cccc(C(=O)NCCF)c1 [Compound 45] | 90 | 100 |  |  |  |  |  |  | Plant response rating, Crabgrass, Large (large crabgrass [1]; [3]): 80; Crabgrass, Large plant response rating (large crabgrass [1]; [5]): 55; Crabgrass, Large plant response rating (large crabgrass [1]; [6]): 75; Plant response rating, Pigweed (redroot pigweed; [3]): 100; Pigweed plant response rating (redroot pigweed; [5]): 95; Pigweed plant response rating (redroot pigweed; [6]): 100
CCn1nc(C(C)(C)C)cc1C(=O)Nc1cncc(C(=O)N2CC=CC2)n1 [Compound 290] | 10 | 60 | 10 | 25 | 5 | 30 | 95 | 10 | Rice plant response rating (0 to 100 scale) (rice; [9]): 0; Plant response rating, Rice (rice; [10]): 80
CCn1nc(C(C)(C)C)cc1C(=O)Nc1cccc(OCCCF)c1 [Compound 138] | 30 | 100 | 20 | 90 |  | 60 | 95 | 80 | Crabgrass, Large plant response rating (large crabgrass [1]; [5]): 70; Plant response rating, Rice (rice; [11]): 40
CCn1nc(C(C)(C)C)cc1C(=O)Nc1cc(OC(F)(F)F)ccc1F [Compound 338] | 45 | 95 | 20 | 100 | 65 | 70 | 90 | 55 | Plant response rating, Johnsongrass (johnsongrass; [12]): 0; Plant response rating, Johnsongrass (johnsongrass; [13]): 0; Plant response rating, Johnsongrass (johnsongrass; [14]): 0; Plant response rating, Johnsongrass (johnsongrass; [15]): 0; Plant response rating, Crabgrass, Large (large crabgrass [2]; [12]): 10; Plant response rating, Crabgrass, Large (large crabgrass [2]; [13]): 15; Plant response rating, Crabgrass, Large (large crabgrass [2]; [14]): 5; Plant response rating, Crabgrass, Large (large crabgrass [2]; [15]): 0; Plant response rating, Corn (corn; [12]): 10; Plant response rating, Corn (corn; [13]): 10; Plant response rating, Corn (corn; [14]): 0; Plant response rating, Corn (corn; [15]): 0
C#CCNC(=O)c1cc(NC(=O)c2cc(C(C)(C)C)nn2CC)ccn1 [Compound 283] | 10 | 100 | 10 | 90 | 15 | 80 | 90 | 60 | Rice plant response rating (0 to 100 scale) (rice; [9]): 0; Plant response rating, Rice (rice; [10]): 0
CCn1nc(C(C)(C)C)cc1C(=O)Nc1cccc(C(C)=O)c1 [Compound 122] | 65 | 100 | 35 | 95 |  | 60 | 90 | 85 | Crabgrass, Large plant response rating (large crabgrass [1]; [5]): 70; Plant response rating, Rice (rice; [16]): 20
CCc1nc(C(C)(C)C)sc1C(=O)Nc1cccc(C(=O)NCCF)c1 [Compound 209] | 40 | 50 | 20 | 95 | 75 | 40 | 100 | 75 | Rice plant response rating (0 to 100 scale) (rice; [9]): 30; Plant response rating, Rice (rice; [11]): 70
CCn1nc(C(C)(C)C)cc1C(=O)Nc1nc(C(=O)N2CC=CC2)ccc1F [Compound 281] | 10 | 70 | 5 | 65 | 20 | 70 | 95 | 90 | Rice plant response rating (0 to 100 scale) (rice; [9]): 20; Plant response rating, Rice (rice; [10]): 60
C#CCNC(=O)c1cccc(NC(=O)c2sc(C(C)(C)C)nc2CC)c1 [Compound 319] | 50 | 40 | 10 | 100 | 85 | 40 | 100 | 100 | Plant response rating (0 to 100 scale), Rice (rice; 125 g ai/ha, 0 is no effect, 100 is complete control, preemergence): 30; Plant response rating, Rice (rice; [10]): 70
CCn1nc(C(C)(C)C)cc1C(=O)Nc1cccc(C(=O)NC(C)C)c1 [Compound 51] |  |  |  |  |  |  |  |  | Crabgrass, Large plant response rating (large crabgrass [1]; [17]): 30; Plant response rating, Crabgrass, Large (large crabgrass [1]; [3]): 30; Crabgrass, Large plant response rating (large crabgrass [1]; [5]): 80; Crabgrass, Large plant response rating (large crabgrass [1]; [18]): 80; Rice plant response rating (rice; Preemergence, 500 g ai/ha, scale 0 to 100): 50; Plant response rating, Rice (rice; [16]): 0; Pigweed plant response rating (redroot pigweed; [17]): 50; Plant response rating, Pigweed (redroot pigweed; [3]): 85; Pigweed plant response rating (redroot pigweed; [5]): 100; Pigweed plant response rating (redroot pigweed; [18]): 100
CCc1nn(C(C)C)nc1C(=O)Nc1cccc(C(=O)N2CCCCC2)c1 [Compound 385] |  |  |  |  |  |  |  |  | Plant response rating, Johnsongrass (johnsongrass; [19]): 80; Plant response rating (0 = no effect, 100 = complete control), Johnsongrass (johnsongrass; 125 g ai/ha, preemergence): 95; Plant response rating, Johnsongrass (johnsongrass; [20]): 100; Plant response rating, Johnsongrass (johnsongrass; [21]): 100; Plant response rating, Crabgrass, Large (large crabgrass [2]; [19]): 90; Plant response rating (0 = no effect, 100 = complete control), Crabgrass, Large (large crabgrass [2]; 125 g ai/ha, preemergence): 95; Plant response rating, Crabgrass, Large (large crabgrass [2]; [20]): 100; Plant response rating, Crabgrass, Large (large crabgrass [2]; [21]): 100; Plant response rating, Corn (corn; [19]): 0
CCn1nc(C(C)(C)C)cc1C(=O)Nc1cc(C(=O)NCC2CC2)ccn1 [Compound 155] |  |  |  |  |  |  |  |  | Plant response rating, Rice (rice; [11]): 50; Plant response rating, Rice (rice; [16]): 20
CCN(C(C)=O)C(=O)c1ccc(F)c(NC(=O)c2cc(C(C)(C)C)nn2CC)c1 [Compound 413] | 15 | 85 | 10 | 70 | 40 | 60 | 60 | 45 | 
CCN(CC)C(=O)c1cncc(NC(=O)c2cc(C(C)(C)C)nn2CC)c1 [Compound 261, 5-[[[3-(1,1-dimethylethyl)-1-ethyl-1H-pyrazol-5-yl]carbonyl]amino]-N,N-diethyl-3-pyridinecarboxamide] |  |  |  |  |  |  |  |  | plant injury at 125 g/ha (rice; Oryza sativa, pre-emergence, 336 h, 125 g ai/ha, 0 = no effect, 100 = complete control, read-out: Rice plant response rating (0 to 100 scale)): 0%; plant injury at 500 g/ha (rice; Oryza sativa, pre-emergence, 336 h, 500 g ai/ha, visual rating, 0 = no effect, 100 = complete control, read-out: Plant response rating, Rice): 60%
